In PMC11476629, “Exploring a Potential Optimization Route for Peptide Ligands of the Sam Domain from the Lipid Phosphatase Ship2” (International Journal of Molecular Sciences, 2024):
Non-standard residues stand in square brackets, D forms with d. Residues, ends and D or L forms follow the SMILES beside them. βAla = NCCC(=O)O

Legend:
[1] = test system: normal human dermal fibroblasts (NHDFs); settings: NHDF, 50 and 100 µM, 4 h, crystal violet; three experiments in quadruplicate
Procedure: (§1) Media and supplements were obtained from Thermo Fisher Scientific (Milan, Italy). PC-3 cells were cultured in the RPMI 1640 medium enriched with 10% fetal bovine serum (FBS) and 2 mM L-glutamine. NHDFs were cultured in the DMEM medium complemented with 2% FBS, 1 μg/mL hydrocortisone, 10 ng/mL human epidermal growth factor, 3 ng/mL basic fibroblast growth factor, and 10 μg/mL heparin. For the cytotoxicity assay 96-well flat-bottom microplates were used and 4 × 10^3 cancer cells and 5 × 10^3 NHDF cells were seeded in 50 μL of medium per well and incubated overnight to permit cell adhesion at 37 °C in a 5% CO2 humidified atmosphere. Following the removal of the culture medium, cells were incubated with 100 μL of their growth medium containing 50 and 100 μM TAT-PSscan255 for 4 h. TAT-PSscan255 was dissolved in water. The crystal violet assay was performed to assess cell viability. The amount of dye taken up was quantified with a plate reader (Multiskan Fc 10094, Thermo Fisher Scientific, Milan, Italy) at 595 nm. Data, reported as means ± SEM of three independent experiments carried out in quadruplicate, were presented as the percentage of proliferating cells compared to the control (vehicle-treated cells).

[2] = test system: PC-3 cells; settings: 4 h, crystal violet
Procedure: as §1

[3] = test system: EphA2 levels in PC-3 cells; test: Western blot analysis of EphA2 levels; assay type: cell-based; settings: n = 3
Procedure: The levels of EphA2 were monitored in PC-3 cells through Western blot analysis to evaluate if the binding of the TAT-PSscan255 peptide to Ship2-Sam could avoid the inhibition of EphA2 endocytosis and degradation. For this purpose, PC-3 cells were treated with ephrinA1-Fc (1 µg/mL for 2 h) and TAT-PSscan255 (50 µM for 4 h), both alone and in combination (i.e., pre-treating with TAT-peptide 50 µM for 2 h followed by the addition of ephrinA1-Fc 1 µg/mL for an extra 2 h) (Figure 7b).
PC-3 cells were treated with TAT-PSscan255 (50 μM) for 4 h and ephrinA1-Fc (1 μg/mL) for 2 h, both alone and in combination. […] Lysates were centrifuged at 13,000 rpm for 30 min at 4 °C and the protein concentration in the supernatants was evaluated using the Bradford assay. […] Quantification was achieved through densitometric analysis with the ImageJ software (v.1.54g) (National Institutes of Health, Bethesda, MD, USA, https://imagej.org). Statistical significance regarding the comparison between treated and untreated cells was evaluated with one-way ANOVA using Dunnett’s post-test analysis. Statistical analysis was assessed with the OriginPro software v.2023 (OriginLab Corporation, Northampton, MA, USA).

CC[C@H](C)[C@H](NC(=O)[C@H](CCCNC(=N)N)NC(=O)[C@H](CCCCN)NC(=O)[C@H](CC(N)=O)NC(=O)[C@H](C)NC(=O)[C@H](CC(C)C)NC(=O)[C@H](Cc1ccccc1)NC(=O)[C@H](CCCCN)NC(=O)[C@H](Cc1ccc(O)cc1)NC(=O)[C@H](Cc1c[nH]c2ccccc12)NC(=O)[C@H](CCC(=O)O)NC(=O)[C@H](CCCNC(=N)N)NC(=O)[C@H](CCCCN)NC(=O)CNC(=O)CNC(=O)[C@H](CCC(N)=O)NC(=O)[C@@H]1CCCN1C(=O)[C@@H]1CCCN1C(=O)[C@H](CCCNC(=N)N)NC(=O)[C@H](CCCNC(=N)N)NC(=O)[C@H](CCCNC(=N)N)NC(=O)[C@H](CCC(N)=O)NC(=O)[C@H](CCCNC(=N)N)NC(=O)[C@H](CCCNC(=N)N)NC(=O)[C@H](CCCCN)NC(=O)[C@H](CCCCN)NC(=O)[C@H](CCCNC(=N)N)NC(=O)CNC(=O)CCNC(C)=O)C(=O)N[C@@H](C)C(=O)N[C@@H](Cc1ccc(O)cc1)C(N)=O [TAT-PSscan255] (Ac-[βAla]GRKKRRQRRRPPQGGKREWYKFLANKRIAY-NH2)
Cytotoxic effect (cell viability relative to untreated cells) [1]: increased cytotoxic effect as a function of concentration | Cytotoxicity towards PC-3 compared with NHDFs ([2]; 50 and 100 µM): increased cytotoxicity towards PC-3 with respect to NHDFs | Cytotoxic effect (cell viability relative to untreated cells) ([2]; PC-3, 50 and 100 µM, three experiments in quadruplicate): increased cytotoxic effect as a function of concentration | EphA2 levels with respect to untreated control ([3]; PC-3, TAT-PSscan255 alone, 50 µM for 4 h): a certain decrease in EphA2 levels | EphA2 levels with respect to untreated control ([3]; PC-3, TAT-peptide 50 µM for 2 h, then ephrinA1-Fc 1 µg/mL added for an extra 2 h): a reduction in EphA2 levels like that observed for the ephrin ligand when used by itself
